In patent publication US11814367B2, “Inhibitors of glycogen synthase 1 (GYS1) and methods of use thereof” (Maze Therapeutics, Inc., priority 2021, dated 2023) one finds IC50 data, which are given here for 15 molecules.

Assay [1] addresses hGYS1 enzyme (recombinant hGYS1/GN1 protein) (Homo sapiens (Human), UniProt P13807). The assay can be described thus: GYS1 coupled enzyme assay (PK/LDH). As to conditions: hGYS1/GN1 50 nM, UDP-Glucose 0.8 mM, G6P 1 mM; geometric mean of at least 2 runs. It counts as biochemical.
The subject of assay [2] is hGYS1 enzyme / glycogen synthesis in HeLa cells. The assay can be described thus: GYS1 cell based assay (glycogen synthesis, Glucose-glo). Set-up: species or system human. Particulars: Homo sapiens, HeLa, 24 h, 24 h incubation, 20 mM glucose, geometric mean of at least 2 runs. The method, boiled down:
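HeLa cells starved 24 h in medium containing only 1× Glutamax were plated onto compound in medium with 20 mM glucose (1% DMSO final) for 24 h, 37 °C, 5% CO2. Acid lysates were Tris-quenched, glucoamylase-digested (pH 5.3, 1 h, 37 °C) and read by Glucose-glo luminescence. IC50 came from Hill fits, as geometric mean of ≥2 runs.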

In assay [3] the target is hGYS2 enzyme (recombinant hGYS2/GN1 protein) (Homo sapiens (Human), UniProt P54840). The experiment in a line: GYS2 coupled enzyme assay (PK/LDH). It counts as biochemical. As to conditions: geometric mean of at least 2 assay runs on separate days, read-out: Avg_IC50. The method, boiled down:
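Recombinant hGYS2/GN1 (200 nM) with 2 mM UDP-glucose, 0.2% rabbit liver glycogen, 2 mM glucose-6-phosphate; UDP coupled via PK/LDH (2 mM PEP, 0.6 mM NADH). Buffer 50 mM Tris pH 7.5, 2 mM MgCl2, 100 mM KCl, 2.5% DMSO. A340 slope over 10 min; IC50 from Hill fit of duplicates.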

Chain of hGYS1 enzyme (recombinant hGYS1/GN1 protein) (P13807 whole entry): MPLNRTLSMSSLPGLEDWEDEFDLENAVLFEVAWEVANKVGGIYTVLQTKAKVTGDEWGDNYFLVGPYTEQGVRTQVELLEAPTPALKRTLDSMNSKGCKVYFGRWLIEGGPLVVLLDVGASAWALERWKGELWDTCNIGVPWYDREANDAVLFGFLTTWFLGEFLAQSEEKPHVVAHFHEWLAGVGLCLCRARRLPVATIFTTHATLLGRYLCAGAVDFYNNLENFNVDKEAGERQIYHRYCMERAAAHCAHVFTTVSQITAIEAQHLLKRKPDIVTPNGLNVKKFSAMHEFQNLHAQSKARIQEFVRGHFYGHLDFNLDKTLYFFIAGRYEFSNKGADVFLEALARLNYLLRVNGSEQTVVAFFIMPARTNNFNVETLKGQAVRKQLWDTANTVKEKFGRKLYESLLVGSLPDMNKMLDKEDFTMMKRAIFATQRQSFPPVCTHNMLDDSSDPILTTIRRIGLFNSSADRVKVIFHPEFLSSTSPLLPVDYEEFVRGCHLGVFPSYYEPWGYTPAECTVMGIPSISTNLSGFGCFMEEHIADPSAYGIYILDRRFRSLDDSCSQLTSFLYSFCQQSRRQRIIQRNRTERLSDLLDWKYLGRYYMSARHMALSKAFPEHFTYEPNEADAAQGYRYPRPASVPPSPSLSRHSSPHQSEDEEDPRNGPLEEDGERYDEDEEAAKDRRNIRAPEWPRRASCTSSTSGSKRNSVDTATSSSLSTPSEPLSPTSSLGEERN
Chain of hGYS1 enzyme (recombinant hGYS1/GN1 protein) (P46976 whole entry partner): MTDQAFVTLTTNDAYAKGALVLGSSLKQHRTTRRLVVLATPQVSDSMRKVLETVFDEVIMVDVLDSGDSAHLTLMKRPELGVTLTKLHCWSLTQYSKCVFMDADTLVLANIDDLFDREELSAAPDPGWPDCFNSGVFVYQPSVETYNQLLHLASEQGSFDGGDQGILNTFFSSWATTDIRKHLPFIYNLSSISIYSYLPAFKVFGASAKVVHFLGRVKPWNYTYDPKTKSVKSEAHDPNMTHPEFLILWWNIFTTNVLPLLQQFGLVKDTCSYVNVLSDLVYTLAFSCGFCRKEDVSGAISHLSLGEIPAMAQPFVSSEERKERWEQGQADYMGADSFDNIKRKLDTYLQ
Chain of hGYS2 enzyme (recombinant hGYS2/GN1 protein) (P54840 whole entry): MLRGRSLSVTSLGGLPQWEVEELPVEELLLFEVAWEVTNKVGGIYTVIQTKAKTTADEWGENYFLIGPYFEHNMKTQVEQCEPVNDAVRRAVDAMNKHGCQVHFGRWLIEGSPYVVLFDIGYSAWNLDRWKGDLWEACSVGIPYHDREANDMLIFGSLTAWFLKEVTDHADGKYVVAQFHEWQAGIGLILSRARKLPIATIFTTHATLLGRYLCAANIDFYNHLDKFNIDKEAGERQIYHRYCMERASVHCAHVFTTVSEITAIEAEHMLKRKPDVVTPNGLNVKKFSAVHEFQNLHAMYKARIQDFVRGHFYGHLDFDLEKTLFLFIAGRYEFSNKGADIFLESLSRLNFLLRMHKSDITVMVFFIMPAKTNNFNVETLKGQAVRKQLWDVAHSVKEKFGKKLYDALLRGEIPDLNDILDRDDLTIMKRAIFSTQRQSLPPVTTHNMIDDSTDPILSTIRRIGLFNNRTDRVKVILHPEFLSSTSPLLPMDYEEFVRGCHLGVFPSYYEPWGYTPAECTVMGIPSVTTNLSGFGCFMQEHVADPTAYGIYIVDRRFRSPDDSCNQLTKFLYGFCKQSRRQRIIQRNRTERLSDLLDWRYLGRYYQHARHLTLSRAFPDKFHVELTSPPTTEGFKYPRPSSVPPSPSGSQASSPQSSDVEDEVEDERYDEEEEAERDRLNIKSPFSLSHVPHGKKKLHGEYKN
Chain of hGYS2 enzyme (recombinant hGYS2/GN1 protein) (P46976 whole entry partner): as the sequence (P46976 whole entry partner) above

As to `O=C(N[C@@H](c1ccccc1)c1ccc(C2CC2)c(F)c1)[C@@H]1C[C@@H](F)CN1C(=O)CN1C(=O)Cc2ccccc21` [Compound 454, (2S,4R)-N-[(S)-(4-cyclopropyl-3-fluorophenyl)(phenyl)methyl]-4-fluoro-1-[2-(2-oxo-2,3-dihydro-1H-indol-1-yl)acetyl]pyrrolidine-2-carboxamide], the values for the IC50 in assay [1], in assay [2] and in assay [3] were 72 nM, 1600 nM and > 100000 nM, respectively.
In the same order, the values of `CC1(c2ccc([C@@H](NC(=O)[C@@H]3C[C@@H](F)CN3C(=O)Cn3cnc4ccccc43)c3ccccc3)nc2F)CC1` [Compound 595, (2S,4R)-1-[2-(1H-1,3-benzodiazol-1-yl)acetyl]-4-fluoro-N-[(S)-[6-fluoro-5-(1-methylcyclopropyl)pyridin-2-yl](phenyl)methyl] pyrrolidine-2-carboxamide] are 25 nM, 460 nM and > 100000 nM.
In the same order, the values of `CC(C)c1ccc([C@@H](NC(=O)[C@@H]2C[C@@H](F)CN2C(=O)Cc2ncco2)c2ccccc2)nc1` [Compound 270, (2S,4R)-4-fluoro-1-[2-(1,3-oxazol-2-yl)acetyl]-N-[(S)-phenyl[5-(propan-2-yl)pyridin-2-yl]methyl]pyrrolidine-2-carboxamide] are 96 nM, 1400 nM and > 100000 nM.
With `O=C(N[C@@H](c1ccccc1)c1ccc(C2CC2)c(F)c1)[C@@H]1C[C@@H](F)CN1C(=O)COC(=O)N1CCN(CC2CC2)CC1` [Compound 447, 2-[(2S,4R)-2-{[(S)-(4-cyclopropyl-3-fluorophenyl)(phenyl)methyl]carbamoyl}-4-fluoropyrrolidin-1-yl]-2-oxoethyl 4-(cyclopropylmethyl) piperazine-1-carboxylate], the IC50 in assay [1] is 96 nM; in assay [2] it was 5320 nM; in assay [3], > 100000 nM.
As for `Cc1nnn(CC(=O)N2C[C@H](F)C[C@H]2C(=O)N[C@@H](c2ccccc2)c2ccc(C3CC3)c(F)c2)n1` [Compound 433, (2S,4R)-N-[(S)-(4-cyclopropyl-3-fluorophenyl)(phenyl)methyl]-4-fluoro-1-[2-(5-methyl-2H-1,2,3,4-tetrazol-2-yl)acetyl]pyrrolidine-2-carboxamide], the IC50 is 91 nM in assay [1], 1480 nM in assay [2] and > 100000 nM in assay [3].
On the same counts, the results for `CC(C)c1ccc([C@@H](NC(=O)[C@@H]2C[C@@H](F)CN2C(=O)Cn2ncc(N(C)C)n2)c2ccccc2)nc1F` [Compound 392, (2S,4R)-1-{2-[4-(dimethylamino)-2H-1,2,3-triazol-2-yl]acetyl}-4-fluoro-N-[(S)-[6-fluoro-5-(propan-2-yl)pyridin-2-yl](phenyl)methyl] pyrrolidine-2-carboxamide] are 5 nM, 100 nM and > 100000 nM.
For `CC(C)c1ccc([C@@H](NC(=O)[C@@H]2C[C@@H](F)CN2C(=O)Cn2cnc3ccccc32)c2ccccc2)cc1` [Compound 77, (2S,4R)-1-[2-(1H-1,3-benzodiazol-1-yl)acetyl]-4-fluoro-N-[(S)-phenyl[4-(propan-2-yl)phenyl]methyl]pyrrolidine-2-carboxamide], the IC50 in assay [1] is 8 nM; in assay [2], 120 nM; in assay [3], > 100000 nM.
On the same counts, the results for `CC(C)c1ccc([C@@H](NC(=O)[C@@H]2C[C@@H](F)CN2C(=O)CNc2ncco2)c2ccccc2)cc1` [Compound 198, (2S,4R)-4-fluoro-1-{2-[(1,3-oxazol-2-yl)amino]acetyl}-N-[(S)-phenyl[4-(propan-2-yl)phenyl]methyl]pyrrolidine-2-carboxamide] are 31 nM, 390 nM and > 100000 nM.
With `Cc1nc2ccccc2n1CC(=O)N1C[C@H](F)C[C@H]1C(=O)N[C@@H](c1ccccc1)c1ccc(C2(C)CC2)c(F)n1` [Compound 593, (2S,4R)-4-fluoro-N-[(S)-[6-fluoro-5-(1-methylcyclopropyl)pyridin-2-yl](phenyl)methyl]-1-[2-(2-methyl-1H-1,3-benzodiazol-1-yl)acetyl]pyrrolidine-2-carboxamide], the IC50 was 19 nM in assay [1], 280 nM in assay [2] and > 100000 nM in assay [3].
Regarding `CN(C)c1cnnn1CC(=O)N1C[C@H](F)C[C@H]1C(=O)N[C@@H](c1ccccc1)c1ccc(C2CC2)c(F)n1` [Compound 298, (2S,4R)-N-[(S)-(5-cyclopropyl-6-fluoropyridin-2-yl)(phenyl)methyl]-1-{2-[5-(dimethylamino)-1H-1,2,3-triazol-1-yl]acetyl}-4-fluoropyrrolidine-2-carboxamide], the IC50 in assay [1] was 12 nM; in assay [2] it was 260 nM; in assay [3], > 100000 nM.
On to `CN(C)c1cn(CC(=O)N2C[C@H](F)C[C@H]2C(=O)N[C@@H](c2ccccc2)c2ccc(C3CC3)c(F)n2)nn1` [Compound 299, (2S,4R)-N-[(S)-(5-cyclopropyl-6-fluoropyridin-2-yl)(phenyl)methyl]-1-{2-[4-(dimethylamino)-1H-1,2,3-triazol-1-yl]acetyl}-4-fluoropyrrolidine-2-carboxamide], for which the IC50 is 22 nM in assay [1], 420 nM in assay [2] and > 100000 nM in assay [3].
Regarding `O=C(N[C@@H](c1ccccc1)c1ccc(C2CC2)c(F)c1)[C@@H]1C[C@@H](F)CN1C(=O)Cn1cnc2ccccc21` [Compound 417, (2S,4R)-1-(2-(1H-benzo[d]imidazol-1-yl)acetyl)-N—((S)-(4-cyclopropyl-3-fluorophenyl)(phenyl)methyl)-4-fluoropyrrolidine-2-carboxamide], the IC50 is 23 nM in assay [1], 450 nM in assay [2] and > 100000 nM in assay [3].
`CC(C)c1ccc(C(NC(=O)[C@@H]2C[C@@H](F)CN2C(=O)Cc2cnn[nH]2)c2ccn[nH]2)cc1F` (single isomer, unassigned) [Compound 623, (2S,4R)-4-fluoro-N-[(R) or (S)-[3-fluoro-4-(propan-2-yl)phenyl](1H-pyrazol-5-yl)methyl]-1-[2-(1H-1,2,3-triazol-5-yl)acetyl]pyrrolidine-2-carboxamide]: the IC50 in assay [1] was 111 nM; in assay [2], 4070 nM; in assay [3] it was > 100000 nM.
On the same counts, the results for `O=C(N[C@@H](c1ccccc1)c1ccc(C2CC(F)(F)C2)c(F)c1)[C@@H]1C[C@@H](F)CN1C(=O)Cn1cnc2ccccc21` [Compound 549, (2S,4R)-1-[2-(1H-1,3-benzodiazol-1-yl)acetyl]-N-[(S)-[4-(3,3-difluorocyclobutyl)-3-fluorophenyl](phenyl)methyl]-4-fluoropyrrolidine-2-carboxamide] are 6 nM, 120 nM and > 100000 nM.
For `CN(CC(=O)N1C[C@H](F)C[C@H]1C(=O)N[C@@H](c1ccccc1)c1ccc(C2CC2)c(F)c1)c1cnccn1` [Compound 475, (2S,4R)-N-[(S)-(4-cyclopropyl-3-fluorophenyl)(phenyl)methyl]-4-fluoro-1-{2-[methyl(pyrazin-2-yl)amino]acetyl} pyrrolidine-2-carboxamide], the IC50 in assay [1] was 77 nM; in assay [2], 1290 nM; in assay [3], > 100000 nM.
